Test results from paper PMC5218480 (PLoS ONE, 2017).

System: MV-4-11 cells
Experiment: Gene expression microarray analysis (Affymetrix PrimeView) and GSEA
Format: cell-based, human
Design: RFU PODN (11730768_x_at) / Fold change /veh PODN (11730768_x_at) / RFU LINC00158 (11744669_a_at) / Fold change /veh LINC00158 (11744669_a_at) / RFU DUSP10 (11751237_a_at) / Fold change /veh DUSP10 (11751237_a_at) / RFU ID3 (11757404_x_at) / Fold change /veh ID3 (11757404_x_at) / RFU PLEKHG5 (11737974_s_at) / Fold change /veh PLEKHG5 (11737974_s_at) / RFU LRRC4B (11730491_at) / Fold change /veh LRRC4B (11730491_at) / RFU GIMAP4 (11747438_a_at) / Fold change /veh GIMAP4 (11747438_a_at) / RFU KRT8 (11758183_x_at) / Fold change /veh KRT8 (11758183_x_at) / RFU CNN1 (11734310_a_at) / Fold change /veh CNN1 (11734310_a_at) / RFU VPS37D (11726825_at) / Fold change /veh VPS37D (11726825_at) / RFU C10orf10 (11716522_x_at) / Fold change /veh C10orf10 (11716522_x_at) / RFU KIR2DL2 /// KIR2DL4 /// KIR2DL5A /// KIR2DL5B /// KIR2DS1 /// KIR2DS2 /// KIR2DS3 /// KIR2DS4 /// KIR3DL3 /// KIR3DL3 /// KIR3DS1 (11738374_at) / Fold change /veh KIR2DL2 /// KIR2DL4 /// KIR2DL5A /// KIR2DL5B /// KIR2DS1 /// KIR2DS2 /// KIR2DS3 /// KIR2DS4 /// KIR3DL3 /// KIR3DL3 /// KIR3DS1 (11738374_at) / RFU C1QL1 (11718748_at) / Fold change /veh C1QL1 (11718748_at) / RFU TMPRSS4 (11747572_a_at) / Fold change /veh TMPRSS4 (11747572_a_at) / RFU HAMP (11756126_x_at) / Fold change /veh HAMP (11756126_x_at) / RFU RNFT2 (11725882_a_at) / Fold change /veh RNFT2 (11725882_a_at) / RFU NR4A2 (11747474_a_at) / Fold change /veh NR4A2 (11747474_a_at) / RFU ABCC12 (11746883_a_at) / Fold change /veh ABCC12 (11746883_a_at) / RFU TMEM136 (11760407_x_at) / Fold change /veh TMEM136 (11760407_x_at) / RFU CLDN22 /// WWC2 (11732394_at) / Fold change /veh CLDN22 /// WWC2 (11732394_at) / RFU HLA-DPB1 (11760878_x_at) / Fold change /veh HLA-DPB1 (11760878_x_at) / RFU SPINT1 (11716480_a_at) / Fold change /veh SPINT1 (11716480_a_at) / RFU GAP43 (11754022_s_at) / Fold change /veh GAP43 (11754022_s_at) / RFU A4GNT (11735810_at) / Fold change /veh A4GNT (11735810_at) / RFU PRB3 (11715151_x_at) / Fold change /veh PRB3 (11715151_x_at) / RFU TUBB4B (11761932_at) / Fold change /veh TUBB4B (11761932_at) / RFU CAPN14 (11732068_a_at) / Fold change /veh CAPN14 (11732068_a_at) / RFU TMCC2 (11721928_a_at) / Fold change /veh TMCC2 (11721928_a_at) / RFU IRGQ (11745062_a_at) / Fold change /veh IRGQ (11745062_a_at) / RFU FAM174B (11720279_a_at) / Fold change /veh FAM174B (11720279_a_at) / RFU TMPRSS4 (11748680_a_at) / Fold change /veh TMPRSS4 (11748680_a_at) / RFU FAM212B (11763350_a_at) / Fold change /veh FAM212B (11763350_a_at) / RFU PLEKHG5 (11743358_a_at) / Fold change /veh PLEKHG5 (11743358_a_at) / RFU ZSCAN30 (11745921_a_at) / Fold change /veh ZSCAN30 (11745921_a_at) / RFU CMKLR1 (11741424_a_at) / Fold change /veh CMKLR1 (11741424_a_at) / RFU LOC101060620 /// MAPK8IP1 (11723275_at) / Fold change /veh LOC101060620 /// MAPK8IP1 (11723275_at) / RFU SPTSSB (11747773_x_at) / Fold change /veh SPTSSB (11747773_x_at) / RFU PRSS12 (11739890_at) / Fold change /veh PRSS12 (11739890_at) / RFU BIN1 (11741810_x_at) / Fold change /veh BIN1 (11741810_x_at) / RFU WNT11 (11732464_a_at) / Fold change /veh WNT11 (11732464_a_at) / RFU C10orf10 (11716521_a_at) / Fold change /veh C10orf10 (11716521_a_at) / RFU C5orf56 (11738089_at) / Fold change /veh C5orf56 (11738089_at) / RFU CYB561 (11721691_x_at) / Fold change /veh CYB561 (11721691_x_at) / RFU ANKRD19P (11752326_a_at) / Fold change /veh ANKRD19P (11752326_a_at) / RFU OR2T12 /// OR2T33 /// OR2T8 (11738714_s_at) / Fold change /veh OR2T12 /// OR2T33 /// OR2T8 (11738714_s_at) / RFU VCAN (11748164_a_at) / Fold change /veh VCAN (11748164_a_at) / RFU JSRP1 (11732532_at) / Fold change /veh JSRP1 (11732532_at) / RFU KRTAP10-11 (11738290_x_at) / Fold change /veh KRTAP10-11 (11738290_x_at) / RFU MYO3A (11730013_a_at) / Fold change /veh MYO3A (11730013_a_at) / RFU EBF3 (11725865_a_at) / Fold change /veh EBF3 (11725865_a_at) / RFU CAMK2N1 (11719241_x_at) / Fold change /veh CAMK2N1 (11719241_x_at) / RFU C5orf56 (11738088_a_at) / Fold change /veh C5orf56 (11738088_a_at) / RFU OLFML3 (11715873_a_at) / Fold change /veh OLFML3 (11715873_a_at) / RFU LOC100653217 /// NTM (11731650_a_at) / Fold change /veh LOC100653217 /// NTM (11731650_a_at) / RFU MAPK11 (11762145_a_at) / Fold change /veh MAPK11 (11762145_a_at) / RFU FIZ1 (11724087_x_at) / Fold change /veh FIZ1 (11724087_x_at) / RFU OASL (11726364_x_at) / Fold change /veh OASL (11726364_x_at) / RFU SOX15 (11748057_x_at) / Fold change /veh SOX15 (11748057_x_at) / RFU CD79A (11719716_a_at) / Fold change /veh CD79A (11719716_a_at) / RFU HIST1H1D (11736915_at) / Fold change /veh HIST1H1D (11736915_at) / RFU CASKIN2 (11723855_a_at) / Fold change /veh CASKIN2 (11723855_a_at) / RFU LOC730098 (11760151_x_at) / Fold change /veh LOC730098 (11760151_x_at) / RFU OR4N2 (11742367_at) / Fold change /veh OR4N2 (11742367_at) / RFU PRRT2 (11749266_a_at) / Fold change /veh PRRT2 (11749266_a_at) / RFU SNX32 (11753110_a_at) / Fold change /veh SNX32 (11753110_a_at) / RFU CDHR5 (11726645_a_at) / Fold change /veh CDHR5 (11726645_a_at) / RFU RCAN1 (11760418_a_at) / Fold change /veh RCAN1 (11760418_a_at) / RFU FAM167A (11723789_a_at) / Fold change /veh FAM167A (11723789_a_at) / RFU FAM26E (11764081_at) / Fold change /veh FAM26E (11764081_at) / RFU ISYNA1 (11749810_s_at) / Fold change /veh ISYNA1 (11749810_s_at) / RFU ACY1 (11761880_at) / Fold change /veh ACY1 (11761880_at) / RFU 11764098_at / Fold change /veh 11764098_at / RFU SAMD14 (11745864_x_at) / Fold change /veh SAMD14 (11745864_x_at) / RFU NPB (11741838_a_at) / Fold change /veh NPB (11741838_a_at) / RFU TMPRSS6 (11731388_a_at) / Fold change /veh TMPRSS6 (11731388_a_at) / RFU KRTAP10-2 (11738614_at) / Fold change /veh KRTAP10-2 (11738614_at) / RFU ARHGAP8 /// PRR5-ARHGAP8 (11727945_x_at) / Fold change /veh ARHGAP8 /// PRR5-ARHGAP8 (11727945_x_at) / RFU KRTAP5-7 /// NADSYN1 (11734609_at) / Fold change /veh KRTAP5-7 /// NADSYN1 (11734609_at) / RFU RASL12 (11751679_a_at) / Fold change /veh RASL12 (11751679_a_at) / RFU CDKN2B (11736163_a_at) / Fold change /veh CDKN2B (11736163_a_at) / RFU PRF1 (11729649_at) / Fold change /veh PRF1 (11729649_at) / RFU, ZNF638 /// ZNF638-IT1 / Fold change vs veh, ZNF638 /// ZNF638-IT1 / RFU, PANK3 / Fold change vs veh, PANK3 / RFU, SH3YL1 / Fold change vs veh, SH3YL1 / RFU, ZEB2 / Fold change vs veh, ZEB2 / RFU, NRIP1 / Fold change vs veh, NRIP1 / RFU, PTTG1IP / Fold change vs veh, PTTG1IP / RFU, CAPN2 / Fold change vs veh, CAPN2 / RFU, MED14 / Fold change vs veh, MED14 / RFU, SNORA58 / Fold change vs veh, SNORA58 / RFU, C1orf63 / Fold change vs veh, C1orf63 / RFU, LRRFIP1 / Fold change vs veh, LRRFIP1 / RFU, NDUFAF7 / Fold change vs veh, NDUFAF7 / RFU, SLC12A2 / Fold change vs veh, SLC12A2 / RFU, IBTK / Fold change vs veh, IBTK / RFU, ESF1 / Fold change vs veh, ESF1 / Fold change vs veh, TMEM50B / RFU, TAOK1 / Fold change vs veh, TAOK1 / RFU, ACBD3 / Fold change vs veh, ACBD3 / RFU, TMA16 / Fold change vs veh, TMA16 / RFU, RWDD3 / Fold change vs veh, RWDD3 / RFU, BCAT1 / Fold change vs veh, BCAT1 / RFU, EDEM3 / Fold change vs veh, EDEM3 / RFU, TMEM33 / Fold change vs veh, TMEM33 / RFU, WDR75 / Fold change vs veh, WDR75 / RFU, AHCTF1 / Fold change vs veh, AHCTF1 / RFU, TFRC / Fold change vs veh, TFRC / RFU, ZDHHC17 / Fold change vs veh, ZDHHC17 / RFU, NOM1 / Fold change vs veh, NOM1 / RFU, ARL8B / Fold change vs veh, ARL8B / RFU, ZBTB11 / Fold change vs veh, ZBTB11 / RFU, TAMM41 / Fold change vs veh, TAMM41 / RFU, KIAA1704 /// LOC100996395 / Fold change vs veh, KIAA1704 /// LOC100996395 / RFU, ING1 / Fold change vs veh, ING1 / RFU, TRMT61B / Fold change vs veh, TRMT61B / RFU, FUBP3 / Fold change vs veh, FUBP3 / RFU, TP53 / Fold change vs veh, TP53 / RFU, TNKS2 / Fold change vs veh, TNKS2 / RFU, ZFP14 / Fold change vs veh, ZFP14 / RFU, ACTR2 / Fold change vs veh, ACTR2 / RFU, PPP3R1 / Fold change vs veh, PPP3R1 / RFU, PIK3R1 / Fold change vs veh, PIK3R1 / RFU, HNRNPA1 / Fold change vs veh, HNRNPA1 / RFU, RNF170 / Fold change vs veh, RNF170 / RFU, ZNF28 / Fold change vs veh, ZNF28 / RFU, RNGTT / Fold change vs veh, RNGTT / RFU, OGT / Fold change vs veh, OGT / RFU, BRD1 / Fold change vs veh, BRD1 / RFU, MARS / Fold change vs veh, MARS / RFU, ZNF655 / Fold change vs veh, ZNF655 / RFU, FAHD1 / Fold change vs veh, FAHD1 / RFU, BDP1 / Fold change vs veh, BDP1 / RFU, LRRCC1 / Fold change vs veh, LRRCC1 / RFU, ARID1A / Fold change vs veh, ARID1A / RFU, ZNF146 / Fold change vs veh, ZNF146 / RFU, ZNF330 / Fold change vs veh, ZNF330 / RFU, GPN3 / Fold change vs veh, GPN3 / RFU, C9orf123 / Fold change vs veh, C9orf123 / RFU, N4BP2L2 / Fold change vs veh, N4BP2L2 / RFU, ARFIP1 / Fold change vs veh, ARFIP1 / RFU, FAM179B / Fold change vs veh, FAM179B / RFU, BCL10 / Fold change vs veh, BCL10 / RFU, UHRF1BP1L / Fold change vs veh, UHRF1BP1L / RFU, BET1 / Fold change vs veh, BET1 / RFU, CNOT2 / Fold change vs veh, CNOT2 / RFU, ZNF268 / Fold change vs veh, ZNF268 / Fold change vs veh, ZNF507 / RFU, DGCR2 / Fold change vs veh, DGCR2 / RFU, WDSUB1 / Fold change vs veh, WDSUB1 / Fold change vs veh, HSP90B1 /// MIR3652 / RFU, ADSS / Fold change vs veh, ADSS / RFU, GK / Fold change vs veh, GK / RFU, ZNF148 / Fold change vs veh, ZNF148 / RFU, TAF9 / Fold change vs veh, TAF9 / RFU, SLC1A5 / Fold change vs veh, SLC1A5 / RFU, SLMO2 / Fold change vs veh, SLMO2 / RFU, ABCC4 / Fold change vs veh, ABCC4 / RFU, LOC101060439 /// RAP1B / Fold change vs veh, LOC101060439 /// RAP1B / RFU, RFX7 / Fold change vs veh, RFX7 / RFU, GTPBP10 / Fold change vs veh, GTPBP10 / RFU, CNEP1R1 / Fold change vs veh, CNEP1R1 / RFU, BIVM-ERCC5 /// ERCC5 / Fold change vs veh, BIVM-ERCC5 /// ERCC5 / RFU, ILF3 / Fold change vs veh, ILF3 / RFU 11762660_at / Fold change /veh 11762660_at / RFU VCAN (11757783_s_at) / Fold change /veh VCAN (11757783_s_at) / RFU DDX43 (11728927_at) / Fold change /veh DDX43 (11728927_at) / RFU KRT8 (11758188_x_at) / Fold change /veh KRT8 (11758188_x_at) / RFU NKD1 (11759106_at) / Fold change /veh NKD1 (11759106_at) / RFU SRD5A1 (11742802_a_at) / Fold change /veh SRD5A1 (11742802_a_at) / RFU TPSAB1 /// TPSB2 (11721975_s_at) / Fold change /veh TPSAB1 /// TPSB2 (11721975_s_at) / RFU GSTM3 (11746129_a_at) / Fold change /veh GSTM3 (11746129_a_at) / RFU IL23R (11737362_x_at) / Fold change /veh IL23R (11737362_x_at) / RFU TMEM51 (11727254_a_at) / Fold change /veh TMEM51 (11727254_a_at) / RFU PIWIL2 (11732686_x_at) / Fold change /veh PIWIL2 (11732686_x_at) / RFU ORM1 (11744905_x_at) / Fold change /veh ORM1 (11744905_x_at) / RFU CCDC152 (11743942_at) / Fold change /veh CCDC152 (11743942_at) / RFU ECM1 (11717891_a_at) / Fold change /veh ECM1 (11717891_a_at) / RFU IL23R (11748794_a_at) / Fold change /veh IL23R (11748794_a_at) / RFU TNFAIP8L3 (11732012_x_at) / Fold change /veh TNFAIP8L3 (11732012_x_at) / RFU MBOAT4 (11741988_at) / Fold change /veh MBOAT4 (11741988_at) / RFU 11764193_at / Fold change /veh 11764193_at / RFU TMEM53 (11763286_at) / Fold change /veh TMEM53 (11763286_at) / RFU MAGEB2 (11727129_at) / Fold change /veh MAGEB2 (11727129_at) / RFU TMEM200A (11744735_a_at) / Fold change /veh TMEM200A (11744735_a_at) / RFU CCDC152 (11751479_a_at) / Fold change /veh CCDC152 (11751479_a_at) / RFU FAM211A (11726209_a_at) / Fold change /veh FAM211A (11726209_a_at) / RFU RGS16 (11746705_a_at) / Fold change /veh RGS16 (11746705_a_at) / RFU VCAN (11755009_s_at) / Fold change /veh VCAN (11755009_s_at) / RFU RHOB (11743442_s_at) / Fold change /veh RHOB (11743442_s_at) / RFU RGS16 (11720943_a_at) / Fold change /veh RGS16 (11720943_a_at) / RFU RGS16 (11720944_at) / Fold change /veh RGS16 (11720944_at) / RFU, VPS4B / Fold change vs veh, VPS4B / RFU, CREB1 / Fold change vs veh, CREB1 / RFU, DNAJC13 / Fold change vs veh, DNAJC13 / RFU, GNAQ / Fold change vs veh, GNAQ / RFU, CDK5R1 / Fold change vs veh, CDK5R1 / RFU, ZRANB3 / Fold change vs veh, ZRANB3 / RFU, CUL4A / Fold change vs veh, CUL4A / RFU, CCNY / Fold change vs veh, CCNY / RFU, UFL1 / Fold change vs veh, UFL1 / RFU, COG3 / Fold change vs veh, COG3 / RFU, DIAPH2 / Fold change vs veh, DIAPH2 / RFU, SKA2 / Fold change vs veh, SKA2 / RFU, AFF3 / Fold change vs veh, AFF3 / RFU, LMF1 / Fold change vs veh, LMF1 / RFU, IPO11 / Fold change vs veh, IPO11 / RFU, DFFB / Fold change vs veh, DFFB / RFU, FOXP1 / Fold change vs veh, FOXP1 / RFU, CARD8 / Fold change vs veh, CARD8 / RFU, STRN3 / Fold change vs veh, STRN3 / RFU, ADK / Fold change vs veh, ADK / RFU, RASSF2 / Fold change vs veh, RASSF2 / RFU, WIPF1 / Fold change vs veh, WIPF1 / RFU, LARP1B / Fold change vs veh, LARP1B / RFU, RASA1 / Fold change vs veh, RASA1 / RFU, RB1 / Fold change vs veh, RB1 / RFU, PPFIA1 / Fold change vs veh, PPFIA1 / RFU, MAT2A / Fold change vs veh, MAT2A / RFU, CCT5 / Fold change vs veh, CCT5 / RFU, WDR92 / Fold change vs veh, WDR92 / RFU, CUX1 / Fold change vs veh, CUX1 / RFU, TTC7A / Fold change vs veh, TTC7A / RFU, TMEM135 / Fold change vs veh, TMEM135 / RFU, DEPTOR / Fold change vs veh, DEPTOR / RFU, CPM / Fold change vs veh, CPM / RFU, DNAJB6 / Fold change vs veh, DNAJB6 / RFU, CACNA2D3 / Fold change vs veh, CACNA2D3 / RFU, DTX4 / Fold change vs veh, DTX4 / RFU, TFCP2 / Fold change vs veh, TFCP2 / RFU, GMCL1 /// GMCL1P1 / Fold change vs veh, GMCL1 /// GMCL1P1 / RFU, AEBP2 / Fold change vs veh, AEBP2 / RFU, SNHG1 /// SNORD22 /// SNORD25 /// SNORD26 /// SNORD27 /// SNORD28 /// SNORD29 /// SNORD31 / Fold change vs veh, SNHG1 /// SNORD22 /// SNORD25 /// SNORD26 /// SNORD27 /// SNORD28 /// SNORD29 /// SNORD31 / Fold change (Aza/veh), C12orf56 (ProbeSet 11735607_a_at) / Fold change (ACY-1035/veh), C12orf56 (ProbeSet 11735607_a_at) / Fold change (Aza/veh), FGFR1OP (ProbeSet 11751329_s_at) / Fold change (ACY-1035/veh), FGFR1OP (ProbeSet 11751329_s_at) / Fold change (Aza/veh), VPS36 (ProbeSet 11739960_a_at) / Fold change (ACY-1035/veh), VPS36 (ProbeSet 11739960_a_at) / RFU SYPL1 (11715823_x_at) / Fold change /veh SYPL1 (11715823_x_at) / RFU IGFBP7 (11715501_s_at) / Fold change /veh IGFBP7 (11715501_s_at) / RFU REEP3 (11722064_at) / Fold change /veh REEP3 (11722064_at) / RFU IGLL1 (11728026_x_at) / Fold change /veh IGLL1 (11728026_x_at): dose or concentration left out as unconfirmed
Settings: ProbeSet 11758440_s_at; LIST B

Nc1ccc(-c2cccs2)cc1NC(=O)c1ccc2c(c1)cc(C1CC1)n2CCN1CCOCC1 [ACY-1035]
RFU, RFX7: 47.76 RFU
